pIC50: −log10 of the molar value. Converted amounts (≈) assume the structure as drawn. “And” between values parts separate entries of the source, which are not always exact repeats. Identical values can stand only once. “Also recorded” adds a separate entry of the source. Like-named read-outs stand apart in the source and are kept apart here.
How the values were obtained:
[1] = system: T. gondii bradyzoites (EGS strain); experiment: EGS strain bradyzoite assay (cysts in HFF, dolichos/BAG1 staining); assay type: cell-based, Toxoplasma gondii
Procedure: (§1) HFF cells were grown in IMDM (1×, [+] glutamine, [+] 25 mM HEPES, [+] Phenol red, 10% FBS, [Gibco, Denmark]) on removable, sterile glass disks in the bottom of a clear, flat-bottomed 24-well plate. Cultures were infected with 3×10^4 parasites (EGS strain) per well, in 0.5 mL media and plate was returned to incubator at 37° C. overnight. The following day, the media was removed and clear IMDM and compounds were added to making various concentrations of the drug, to a total volume of 0.5 mL. Two wells were filled with media only, as a control. Plates were returned to the 37° C. incubator for 72 hours.
Efficacy was determined following fixation. Staining was used to determine the numbers of cysts in cultures without and with treatment with the test compounds. Cells were fixed using 4% paraformaldehyde and stained with Fluorescein-labeled Dolichos Biflorus Agglutinin, DAPI, and anti-BAG1, and anti-SAG1. Disks were removed and mounted onto glass slides and visualized using microscopy (Nikon Tl7). Slides were also scanned using a CRi Pannoramic Scan Whole Slide Scanner and viewed using Panoramic Viewer Software.
as §1, with “[gibco,” for “[Gibco,”, “2” for “Two”, “72 hours, and checked once every 24” for “72”, “hours. If tachyzoites were visible in the control before 72 hours, the cells were fixed and stained.” for “hours.”
Cells were fixed using 4% paraformaldehyde and stained with Fluorescein-labeled Dolichos Biflorus Agglutinin, DAPI, and BAG1. Disks were removed and mounted onto glass slides and visualized using microscopy (Nikon Tl7). Slides were scanned using a CRi Pannoramic Scan Whole Slide Scanner and viewed using Panoramic Viewer Software. Effects of the compounds were quantified by counting cysts in the controls and treated cells. Cysts and persisting organisms were counted in a representative field of view and then multiplied by a factor determined by the total area of the disk in order to estimate the number of cysts and organisms in each condition.
HFF cells were grown in IMDM (1×, [+] glutamine, [+] 25 mM HEPES, [+] Phenol red, 10% FBS, [gibco, Denmark]) on removable, sterile glass disks in the bottom of a clear, flat-bottomed 24-well plate. Cultures were infected with 3×10^4 parasites (EGS strain) per well, in 0.5 mL media and plate was returned to incubator at 37° C. overnight. The following day, the media was removed and clear IMDM and compounds were added to making various concentrations of the drug, to a total volume of 0.5 mL. 2 wells were filled with media only, as a control. Plates were returned to the 37° C. incubator for 72 hours, and checked once every 24 hours. If tachyzoites were visible in the control before 72 hours, the cells were fixed and stained. Cells were fixed using 4% paraformaldehyde and stained with Fluorescein-labeled Dolichos Biflorus Agglutinin, DAPI, and BAG1. Disks were removed and mounted onto glass slides and visualized using microscopy (Nikon Tl7). Slides were scanned using a CRi Pannoramic Scan Whole Slide Scanner and viewed using Panoramic Viewer Software. Effects of the compounds were quantified by counting cysts in the controls and treated cells. Cysts and persisting organisms were counted in a representative field of view and then multiplied by a factor determined by the total area of the disk in order to estimate the number of cysts and organisms in each condition. Data was collected using Gen5 software. IC50 was calculated by graphical analysis in Excel.

[2] = Aqueous kinetic solubility pH 7.4; assay type: physicochemical; conditions: for solubility kinetic: PBS pH 7.4
[3] = Microsomal metabolic stability, mouse; assay type: in vitro ADME
[4] = system: S. cerevisiae wild type parental AD1-9 strain; experiment: Yeast growth inhibition on glycerol medium, wild type; assay type: cell-based, Saccharomyces cerevisiae; conditions: 1 mM, 100, 5 and 1 μM
Procedure: Three S. cerevisiae strains were used: M221Q and M221F cytochrome b mutants and wild type. They share the same nuclear genetic background deriving from AD1-9 (kindly given by M. Ghislain, UCL, Belgium). AD1-9 harbors multiple deletions in the ABC transporter genes that render the strain more sensitive to drugs than standard yeast strains^S65.
Protocol: Yeast strains were grown over 48 hours at 33° C. in liquid YPG medium [1% yeast extract, 2% (wt/vol) peptone, and 3% (vol/vol) glycerol). Cultures were diluted to an OD600 of 0.05 and grown for 2 hrs. Cultures were then combined with YPG containing 6% melted agar for a total volume of 15-20 mL and poured onto OmniTray single-well rectangular plates that measured 86 mm by 128 mm (ThermoScientific). Filter paper disks (7 mm diameter, […]) were placed onto the cooled agar plates. […] A single disk with DMSO on each plate was used as a control. Plates were incubated at 33° C. Images were obtained after 4 days using GelDoc XR Imaging System (BioRad) and Quantity One software. Drug effect was assessed by the presence and size of a zone of inhibition around the disks.

[5] = system: human foreskin fibroblasts (HFF); experiment: Cytotoxicity assay with WST-1 in HFF; assay type: cell-based; conditions: 10 μM and 50 μM, WST-1
Procedure: (§2) Toxicity assays were conducted using WST-1 cell proliferation reagent (Roche). HFF were grown on a flat, clear-bottomed, black 96-well plate. Confluent HFF were treated with inhibitory compounds at concentrations equal to those being tested in challenge assays. Compounds were diluted in IMDM-C, and 20 μl were added to each designated well, with triplicates for each condition. A gradient of 2 fold-decreasing concentrations of DMSO in clear IMDM-C was used as a control. The plate was incubated for 72 hours at 37° C. 10 μl of WST-1 reagent (Roche) were added to each well and the cells were incubated for 30 to 60 minutes. Absorbance was read using a fluorometer at 420 nm. A higher degree of color change (and absorbance) indicated mitochondrial activity and cell viability.
as §2, with “(Roche) as described in Fomovska, et. al. (18,19).” for “(Roche).”, “of 10 μM and 50 μM.” for “equal to those being tested in challenge assays.”, “DMSO from 10% to 0%” for “DMSO”, “fluorimeter” for “fluorometer”

[6] = Microsomal metabolic stability, human; assay type: in vitro ADME
in vitro = in vitro ADME; conditions: dog, MDCK-MDR1
MDR1 = experiment: in vitro; assay type: in vitro ADME; conditions: dog, MDCK-MDR1, MDCK-MDR1 Efflux Ratio
RH-YFP = experiment: Assessment of compound degradation and microbicidal effect on Toxoplasma; assay type: cell-based, Toxoplasma gondii
Procedure: HFF were cultured in a 96-well plate and infected with RH-YFP as described above on Day 0, 20 μL of compound was added to 9 wells for each compound and concentration (3 conditions, 3 wells per condition). In condition I, media was removed and replaced with fresh media on Day 3. In condition II, media was removed and replaced with fresh media and more compound on Day 3. In condition III, media was not replaced on Day 3, nor was the compound refreshed. On Day 6, media was removed and replaced with clean media in all wells. On Day 3, 6, and 9 plate was read in the fluorimeter and analyzed graphically in Prism (GraphPad Software).

[7] = system: P. falciparum strains D6, TM91-C235, W2, C2B; experiment: Malaria SYBR Green I-Based Fluorescence (MSF) Assay; assay type: cell-based, Plasmodium falciparum; conditions: Plasmodium falciparum, read-out: P. falciparum IC50
Procedure: Testing of P. falciparum: D6 is a drug sensitive strain from Sierra Leone, C235 is a multi-drug resistant strain from Thailand, W2 is a chloroquine resistant strain from Thailand, and C2B has resistance to a variety of drugs including atovaquone.
D6 is a drug sensitive strain from Sierra Leone, C235 is a multi-drug resistant strain from Thailand, W2 is a chloroquine resistant strain from Thailand, and C2B has resistance to a variety of drugs including atovaquone. These assays were performed as described.
(§3) Compound activity against P. falciparum, a causative agent of malaria, was tested using the Malaria SYBR Green I—Based Fluorescence (MSF) Assay. This; microtiter plate drug sensitivity assay uses the presence of malarial DNA as a measure of parasitic proliferation in the presence of antimalarial drugs or experimental compounds based on modifications of previously described methods by Plouffe et al (20) and Johnson et al. As the intercalation of SYBR Green I dye and its resulting fluorescence is relative to parasite growth, a test compound that inhibits the growth of the parasite will result in a lower fluorescence.
Selected compounds were examined for activity against four strains of P. falciparum: D6 (CDC/Sierra Leone), a drug-sensitive strain readily killed by chloroquine, TM91-C235, a multi-drug resistant strain resistant to chloroquine, W2, a chloroquine resistant strain from Thailand, and C2B has resistance to a variety of drugs including atovaquone.
D6 is a drug sensitive strain from Sierra Leone, C235 is a multi-drug resistant strain from Thailand, W2 is a chloroquine resistant strain from Thailand, and C2B has resistance to a variety of drugs including atovaquone. These assays were performed using standard protocols.
as §3, with “known in the art.” for “by Plouffe et al (20) and Johnson et al.”, “fluorescence. Selected compounds were examined for activity against four strains of P. falciparum: D6 (CDC/Sierra Leone), a drugsensitive strain readily killed by chloroquine, TM91-C235, a multi-drug resistant strain resistant to chloroquine, W2, a chloroquine resistant strain from Thailand, and C2B has resistance to a variety of drugs including atovaquone.” for “fluorescence.”

[8] = Cytotoxicity assay with WST-1 in HFF; assay type: cell-based; conditions: human, human foreskin fibroblasts (HFF); read-out: HFF Toxicity CC50
Procedure: as §2
as §2, with “(Roche) as described in Fomovska, et. al. (18,19).” for “(Roche).”, “of 10 μM and 50 μM.” for “equal to those being tested in challenge assays.”, “DMSO from 10% to 0%” for “DMSO”, “fluorimeter” for “fluorometer”

FaSSIF solubility pH 6.5 = assay type: physicochemical; conditions: pH 6.5

Cc1[nH]c2ccccc2c(=O)c1-c1ccc(Oc2ccc(OC(F)(F)F)cc2)cc1 [ELQ271, 2-methyl-3-(4-(4-(trifluoromethoxy)phenoxy)phenyl) quinolin-4(1H)-one, reference compound]
reduction of EGS cysts in vitro ([1]; 10 μM): reduce the EGS cysts; also recorded: inhibited EGS in vitro | solubility ([2]; aqueous buffer, kinetic from dmso stock, 100 mM Phosphate Buffer (pH 7.4)): 0.15 µM (≈ 0.0617 µg/mL) | Mouse liver microsomes T1/2 [3]: 7.4688 h | growth inhibition of wild type yeast [4]: effective

Cc1[nH]c2c(c(=O)c1-c1ccc(Oc3ccc(Cl)cc3)cc1)CCCC2 [JAG050, 3-(4-(4-chlorophenoxy)phenyl)-2-methyl-5,6,7,8-tetrahydroquinolin-4(1H)-one]
reduction in the number of true cysts and small organisms ([1]; 1 μM and 10 μM, EGS): statistically significant reduction | Pseudocysts ([1]; part a, 1 μM): 23.25 ± 10.31 | Small organisms ([1]; part a, 1 μM): 58 ± 24 | True Cysts ([1]; part a, 1 μM): 0.25 ± 0.5 | Pseudocysts ([1]; part a, 10 μM): 20.5 ± 2.9 | Small organisms ([1]; part a, 10 μM): 31 ± 16 | True Cysts ([1]; part a, 10 μM): 1 ± 0.82 | Pseudocysts ([1]; part b, 1 μM): 2269 | Small organisms ([1]; part b, 1 μM): 5086 | True Cysts ([1]; part b, 1 μM): 29 | Pseudocysts ([1]; part b, 10 μM): 1921 | Small organisms ([1]; part b, 10 μM): 3018 | True Cysts ([1]; part b, 10 μM): 88 | toxicity to human foreskin fibroblasts [5]: no toxicity | solubility kinetic ([2]; PBS, pH 7.4, aqueous buffer, kinetic from dmso stock): 16 µM (≈ 5.85 µg/mL) | Human liver microsomes T1/2 [6]: 1.651 h | Mouse liver microsomes T1/2 [3]: 1.142 h | Papp A→B (in vitro): > 10 ×10⁻⁶ cm/s | efflux ratio (MDR1): < 1.5 | compound degradation over time (RH-YFP; 6-day exposure in culture): did not appear that the compound was being degraded over time | microbicidal effect (RH-YFP; RH-YFP, media replaced): Neither compound was found to be microbicidal

Cc1[nH]c2ccccc2c(=O)c1-c1ccc(Oc2ccc(OC(F)(F)F)cc2)cc1 [ELQ 271, reference compound]
pIC50 ([1]; Toxoplasma gondii, EGS strain, read-out: T. gondii Bradyzoite IC50): 6.00 | pIC50 ([7]; C2B strain (multi-drug resistant, atovaquone resistant)): 6.89 | pIC50 ([7]; D6 strain (drug sensitive)): 7.52 | pIC50 ([7]; TM91C235 strain (multi-drug resistant)): 7.05 | pIC50 ([7]; W2 strain (chloroquine resistant)): 7.00 | CC50 at 72 h [8]: 20000 nM | solubility kinetic [2]: 0.15 µM (≈ 0.0617 µg/mL) | solubility (FaSSIF solubility pH 6.5): 3.4 µM (≈ 1.4 µg/mL) | Human microsomal stability T1/2 [6]: 2.87 h and 2.865 h | Mouse microsomal stability T1/2 [3]: >3.33 h | half-life ([3]; mouse, liver microsomes, read-out: Mouse microsomal stability T1/2): > 3.33 h
